Laboratory results published in paper PMC2905291, “A phase I study of the safety and pharmacokinetics of the histone deacetylase inhibitor belinostat administered in combination with carboplatin and/or paclitaxel in patients with solid tumours” (British Journal of Cancer, 2010).
Like-named read-outs stand apart in the source and are kept apart here.

Key:
[1] = Belinostat plasma pharmacokinetics in patients (HPLC-MS/MS, non-compartmental); type: in vivo, human; details: for Cl / Vss / AUC / AUC(0-inf) / Cmax / half-life: mean±s.d.; for AUC / AUC(0-inf) / Cmax / half-life: human, plasma, iv
Method: Belinostat and paclitaxel levels were determined in lithium-heparinised plasma using validated solid-phase extraction high performance liquid chromatograpgy (HPLC)-tandem mass spectrometric detection (MS/MS) methods (Covance, Indianapolis, IN, USA). […] Belinostat plasma concentrations were determined at Covance using a validated method involving solid-phase extraction, separation with acetic acid acetonitril gradient on reversed phase C18 silica and MS/MS using penta-deuterated belinostat as the internal standard. […] For all analytes the AUC was estimated from the start of infusion by the logarithmic-linear trapezoidal rule and extrapolated to infinity using the estimated value of the slope of the terminal logarithmic-linear disposition phase.

[2] = system: patients with advanced solid malignancy; details: in vivo
Method: Belinostat was administered in escalating doses of 600, 800 and 1000 mg m^−2 per day as a 30-min i.v. infusion on days 1–5 q21. Carboplatin was administered as a 30-min i.v. infusion at area under the curve (AUC) 5 on day 3 q21 days, whereas paclitaxel was administered at 175 mg m^−2 i.v. over 3 h. Cytotoxics were given 2–3 h after the administration of belinostat–paclitaxel followed by carboplatin. […] Carboplatin was dosed in accordance with the Calvert formula using ethylenediaminetetraacetic acid clearance to estimate glomerular filtration rate (GFR) ([Calvert et al, 1989]) at the European Union sites and the Jelliffe formula at sites in the United States ([Jelliffe, 1973]). Prophylactic anti-emetic and hypersensivity prophylaxis for paclitaxel were administered as per local standards.
A DLT was defined as an absolute neutrophil count <0.5 × 10^9 l^−1 lasting for ⩾7 days, or absolute neutrophil count <0.5 × 10^9 l^−1 with sepsis; or platelet count <25 × 10^9 l^−1. In addition, any other drug-related non-haematological grade III or IV toxicity with the exceptions of alopecia, nausea and vomiting, diarrhoea, rash, arthralgias and myalgias was categorized as DLT.
Dose escalation was planned in a classical 3+3 design in up to five cohorts. In cohort 1A, belinostat was to be administered at 600 mg m^−2 together with carboplatin AUC 5; in cohort 1B, […] with paclitaxel 175 mg m^−2. In cohort 2, belinostat at 600 mg m^−2 was to be administered with both carboplatin AUC 5 and paclitaxel at 175 mg m^−2. In cohorts 3 and 4, belinostat was to be administered at 800 and 1000 mg m^−2, respectively, together with the same doses of BelCaP. Treatment cycles were to be repeated until disease progression, evidence of significant treatment-related toxicities, or withdrawal of consent. Up to two dose reductions were to be allowed of all three drugs.
Pre-treatment evaluation included history, physical examination, laboratory assessments, chest x-ray, electrocardiogram (ECG), urinalysis and tumour evaluation with computed tomography (CT) or magnetic resonance imaging (MRI). Laboratory assessments (complete blood count, clotting screen, urea, creatinine, electrolytes, liver function tests, uric acid, glucose and cholesterol) were performed pre-treatment and weekly thereafter as well as on day 4 of cycles 1 and 2 only. Electrocardiograms were performed before and within 1 h after treatment with belinostat in cycle 1 and on day 1 only of all subsequent cycles. Central ECG reading was carried out using a digital analysis method.
Toxicities were graded according to the National Cancer Institute Common Terminology Criteria for Adverse Events version 3.0. Efficacy was assessed by CT or MRI performed every two cycles using Response Evaluation Criteria in Solid Tumors (RECIST) ([Therasse et al, 2000]).

[3] = system: advanced solid malignancy; experiment: Anti-tumour activity by CT/MRI (RECIST) in phase I patients; type: in vivo, human; details: for duration of response: confirmed PR
[4] = system: solid and haematological tumours; details: cited from earlier work; for dose-limiting toxicities: 2008
[5] = system: class I and II recombinant HDAC isoforms; parameters: method as in Khan et al, 2008; details: ref Khan et al, 2008; cited from earlier work
[6] = parameters: method as in Qian et al, 2006; details: combined with paclitaxel, docetaxel and carboplatin, in vitro and in vivo; ref Qian et al, 2006; cited from earlier work
[7] = belinostat 600 mg m^−2 i.v., days 1 and 3, 12 patients
[8] = belinostat 800 mg m^−2 i.v., days 1 and 3, 4 patients
[9] = belinostat 1000 mg m^−2 i.v., day 1, 7 patients
[10] = belinostat 1000 mg m^−2 i.v., day 3, 7 patients
[11] = 600 mg, belinostat 600 mg m^−2 i.v., days 1 and 3, 12 patients
[12] = 800 mg, belinostat 800 mg m^−2 i.v., days 1 and 3, 4 patients
[13] = 1000 mg, belinostat 1000 mg m^−2 i.v., day 1, 7 patients
[14] = 1000 mg, belinostat 1000 mg m^−2 i.v., day 3, 7 patients
[15] = eight patients with best response s.d.

SMILES: O=C(/C=C/c1cccc(S(=O)(=O)Nc2ccccc2)c1)NO [belinostat]
- accumulation with repeat dosing ([1]; 1000 mg m^−2 per day, day 3 pre-infusion): no accumulation
- Cl [1, 7]: 69.7±15.2 l h^−1 m^−2
- Vss [1, 7]: 34.9±6.4 l m^−2
- Cl [1, 8]: 73.7±14.1 l h^−1 m^−2
- Vss [1, 8]: 38.1±9.7 l m^−2
- Cl [1, 9]: 41.1±22.2 l h^−1 m^−2
- Vss [1, 9]: 22.6±9.7 l m^−2
- Cl [1, 10]: 45.1±17.3 l h^−1 m^−2
- Vss [1, 10]: 35.8±17.3 l m^−2
- patients with pre-infusion plasma value on day 3 below the limit of quantitation ([1]; belinostat 1000 mg m^−2 per day, limit of quantitation 5 ng ml^−1): five of seven
- effect of concurrent administration on pharmacokinetics ([1]; belinostat with carboplatin and/or paclitaxel on day 3): unaltered
- dose proportionality of pharmacokinetics ([1]; dose range 600–1000 mg m^−2): dose proportional
- AUC [1, 11]: 28.4 ± 7.1 µM·h
- AUC(0-inf) [1, 11]: 28.4 ± 7.1 µM·h
- Cmax [1, 11]: 58.5 ± 13.8 µM
- half-life [1, 11]: 1.7 ± 0.9 h
- AUC [1, 12]: 35.5 ± 8.7 µM·h
- AUC(0-inf) [1, 12]: 35.6 ± 8.7 µM·h
- Cmax [1, 12]: 70.8 ± 18.9 µM
- half-life [1, 12]: 1.7 ± 0.2 h
- AUC [1, 13]: 102 ± 58.2 µM·h
- AUC(0-inf) [1, 13]: 102 ± 58.3 µM·h
- Cmax [1, 13]: 128 ± 43.5 µM
- half-life [1, 13]: 1 ± 0.1 h
- AUC [1, 14]: 88.8 ± 63.9 µM·h
- AUC(0-inf) [1, 14]: 88.8 ± 63.9 µM·h
- Cmax [1, 14]: 135 ± 54.9 µM
- half-life [1, 14]: 2.7 ± 0.4 h
- Alopecia grade 3, treatment related AE ([2]; human): 0
- Arthralgia grade 3, treatment related AE ([2]; human): 0
- Flushing grade 3, treatment related AE ([2]; human): 0
- Nausea grade 3, treatment related AE ([2]; human): 0
- Neutropenia grade 4, treatment related AE ([2]; human): 13%
- maximal administered dose of belinostat ([2]; human): 1000 mg m^−2 per day
- recommended dose of belinostat ([2]; human, iv): 1000 mg m^−2 per day
- cardiac toxicity [2]: no cardiac toxicity
- grade IV non-haematological adverse events [2]: no grade IV non-haematological adverse events
- patients with best response of s.d. ([3]; 14 patients evaluable): eight
- patients with stable disease lasting ⩾6 months ([3]; belinostat with carboplatin and/or paclitaxel): six and seven
- partial responses (number of patients) ([3]; belinostat with carboplatin and/or paclitaxel, 14 patients evaluable, RECIST): two
- duration of response ([3]; patient with metastatic pancreatic cancer treated with belinostat and carboplatin): 7 months
- duration of response ([3]; patient with metastatic rectal cancer treated with belinostat, carboplatin and paclitaxel): 9 months
- duration of s.d., median [3, 15]: 6.6 months
- duration of s.d., range [3, 15]: 1–29 months
- CA-125 response ([3]; one patient, mixed mullerian tumour of ovarian origin, radiologically s.d. by RECIST): complete CA-125 response
- duration of s.d., range ([3]; seven patients with s.d. lasting ⩾6 months): 6–29 months
- response in patient with metastatic transitional cell cancer of the bladder ([3]; treated with belinostat and paclitaxel, otherwise rated s.d.): resolution of a bony metastatic deposit
- myelosuppression ([4]; single agent phase I studies, ref Steele et al, 2008, Gimsing et al): no significant myelosuppression
- maximum tolerated dose (MTD) ([4]; single agent, i.v., q21 days, ref Steele et al, 2008, Gimsing et al): 1000 mg m^−2 per day
- dose-limiting toxicities ([4]; single agent, solid tumour study, ref Steele et al): fatigue, diarrhoea and atrial fibrillation
- dose-limiting toxicities ([4]; single agent, study of haematological tumours, ref Gimsing et al): none were seen
- activity against HDAC isoforms [5]: nanomolar activity
- combination effect [6]: additive to synergistic
